{
  "source": "patent US8883842B2",
  "about": "“Use of HDAC inhibitors for the treatment of myeloma” (Novartis AG, priority 2005, dated 2014)",
  "key": {"MM patient cells": {"test_system": "MM patient cells", "experiment": "Growth inhibition (MTS assay and tritiated-thymidine uptake) in MM patient cells", "format": "cell-based", "settings": "Homo sapiens, 48 hours, read-out: median inhibitory concentration, myeloma cell growth", "procedure": "(§1) Bortezomib-sensitive (MM.1S) and Bortezomib-resistant (MM.1R) human MM cell lines, as well as RPMI-8226 cells resistant to Doxorubicin (Dox 40), Mitoxantrone (MR20), and Melphalan (LR5), were cultured in RPMI-1640 media (Cellgro, Mediatech, VA) with 10% fetal bovine serum, 2 mmol/L L-glutamine (GIBCO, Grand Island, N.Y.), 100 U/mL penicillin, and […] streptomycin (GIBCO). Drug-resistant cell lines were cultured with either doxorubicin, mitoxantrone, melphalan or bortezomib to confirm their lack of drug sensitivity. MM patient cells were purified (>95% CD138+) by positive selection with anti-CD138 MACS Microbeads (Miltenyi, San Diego, Calif.).\n(§2) DNA synthesis was measured by 3H-thymidine (NEN Products, Boston, Mass.) uptake. Cells were pulsed with 3H-thymidine (0.5 μCi/well) during the last 8 hours of 48-hour cultures. All of the experiments were performed in triplicate.\n(§3) Cells from 24-, 48- or 72-hour cultures in 200 μL media plus drug were pulsed with 40 μL of 5 mg/mL MTS to each well for the last 4 hours of the cultures. Absorbance was measured at 490 nm using a spectrophotometer (Molecular Devices Corp., Sunnyvale, Calif.)."}, "[1]": {"test_system": "MM cell lines resistant to conventional therapies", "experiment": "Growth inhibition (MTS assay and tritiated-thymidine uptake) in MM cell lines", "format": "cell-based", "settings": "Homo sapiens, 48 h, read-out: median inhibitory concentration, myeloma cell growth", "procedure": "as §1, §2, §3"}, "MM.1S cells": {"test_system": "MM.1S cells", "experiment": "Western blot of apoptosis and cell cycle markers in MM.1S cells", "format": "cell-based, human", "excerpt": "(§4) Cell lysates were subjected to SDS-PAGE, transferred to polyvinylidene difluoride (PVDF) membrane, and immunoblotted with anti-acetylated histone (Upstate Biotechnology, Lake Placid, N.Y.), anti-p21 antibody (Santa Cruz Biotech, Santa Cruz, Calif.), anti-PARP; anti-caspase-8, anti-caspase-9 and anti-caspase 3 (Cell Signaling, MA); as well as anti-polyubiquitin conjugates, anti-LMP7, anti-β5 (Affiniti, Mamhead, Exeter, Devon, UK). Membranes were stripped and re-probed with anti-tubulin or anti-β-actin (Sigma, St Louis, Mo.) to ensure equivalent protein loading."}, "[2]": {"molecular_target": "T1, HDAC6, or tubulin deacetylase (TDAC) (Homo sapiens, UniProt Q9UBN7)", "T1 construct": "endogenous in cells; host or cells: MM.1S cells", "T1 sequence (Q9UBN7 1-1215)": "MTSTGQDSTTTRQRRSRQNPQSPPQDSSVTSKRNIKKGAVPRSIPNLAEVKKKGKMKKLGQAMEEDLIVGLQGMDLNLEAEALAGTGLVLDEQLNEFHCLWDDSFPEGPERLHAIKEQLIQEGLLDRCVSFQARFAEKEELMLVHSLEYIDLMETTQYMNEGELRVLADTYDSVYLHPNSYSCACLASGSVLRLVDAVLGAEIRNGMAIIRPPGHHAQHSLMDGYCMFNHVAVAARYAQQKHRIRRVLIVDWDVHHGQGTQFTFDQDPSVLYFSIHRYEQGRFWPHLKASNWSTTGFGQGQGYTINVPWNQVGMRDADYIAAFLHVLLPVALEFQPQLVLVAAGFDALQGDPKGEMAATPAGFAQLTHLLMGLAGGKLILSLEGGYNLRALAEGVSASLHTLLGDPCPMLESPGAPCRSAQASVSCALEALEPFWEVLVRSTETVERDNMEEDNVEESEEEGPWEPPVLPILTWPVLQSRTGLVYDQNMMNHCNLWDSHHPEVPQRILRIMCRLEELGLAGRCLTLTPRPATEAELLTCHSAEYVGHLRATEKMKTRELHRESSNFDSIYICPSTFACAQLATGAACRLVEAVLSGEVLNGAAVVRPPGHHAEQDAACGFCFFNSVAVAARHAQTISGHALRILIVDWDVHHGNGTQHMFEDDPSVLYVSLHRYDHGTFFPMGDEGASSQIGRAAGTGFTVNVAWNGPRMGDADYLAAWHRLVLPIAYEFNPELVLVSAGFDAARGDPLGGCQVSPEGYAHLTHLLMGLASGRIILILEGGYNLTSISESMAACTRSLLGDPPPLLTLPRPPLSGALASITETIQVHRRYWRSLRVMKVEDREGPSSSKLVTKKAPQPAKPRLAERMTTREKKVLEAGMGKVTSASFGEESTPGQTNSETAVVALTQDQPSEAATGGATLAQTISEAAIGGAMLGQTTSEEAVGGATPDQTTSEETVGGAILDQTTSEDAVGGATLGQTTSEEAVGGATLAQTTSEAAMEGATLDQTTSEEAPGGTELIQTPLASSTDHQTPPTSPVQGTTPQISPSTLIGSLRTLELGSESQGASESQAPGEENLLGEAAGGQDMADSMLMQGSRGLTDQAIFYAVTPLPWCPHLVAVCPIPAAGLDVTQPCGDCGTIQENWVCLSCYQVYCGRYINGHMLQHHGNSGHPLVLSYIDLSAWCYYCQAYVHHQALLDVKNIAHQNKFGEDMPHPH", "experiment": "Inhibition of TDAC (HDAC6, tubulin deacetylase) in MM.1S cells", "format": "cell-based", "settings": "low nanomolar concentrations", "excerpt": "as §4"}, "MM cells": {"test_system": "MM cells", "experiment": "Combination with proteasome inhibitor bortezomib on MM cells", "format": "cell-based, human", "procedure": "DNA synthesis was measured by 3H-thymidine (NEN Products, Boston, Mass.) uptake. Cells were pulsed with 3H-thymidine (0.5 μCi/well) during the last 8 hours of 48-hour cultures. All of the experiments were performed in triplicate. Statistical significance of differences observed in drug-treated versus control cultures was determined using Student's t test. The minimal level of significance was p<0.05. […] The survival curves for mice were computed using the Kaplan-Meier method. The survival time differences between the control and treated group were compared using a log-rank test. The median survival times were compared using the Fisher-exact test. To compare the rate of tumor growth in the two arms, a linear mixed effect model (random coefficient model) was fitted."}, "[3]": {"test_system": "MM.1S cells co-cultured with bone marrow stromal cells", "experiment": "MM.1S proliferation in co-culture with bone marrow stromal cells", "format": "cell-based, human", "procedure": "Bone marrow specimens were obtained from patients with MM. Mononuclear cells, separated by FicoII-Hipaque density sedimentation, were used to establish long-term BM cultures. When an adherent cell monolayer had developed, cells were harvested in HBSS containing 0.25% trypsin and 0.02% EDTA and were washed and collected by centrifugation. The BMSCs were then plated onto flat-bottom 96-well plates overnight, and then 3×10^4 mM.1S cells were added for 48 hours. 150 μL of supernatant was removed and cells were pulsed with [3H]thymidine (0.5 μCi/well) during the last 8 hours of 48-hour cultures."}},
  "data": [
    {"smiles": "Cc1[nH]c2ccccc2c1CCNCc1ccc(/C=C/C(=O)NO)cc1", "note": "[Compound (III), N-hydroxy-3-[4-[[[2-(2-methyl-1H-indol-3-yl)-ethyl]-amino]methyl]phenyl]-2E-2-propenamide]", "values": [
      {"measurement": "IC50", "setting": "MM patient cells", "result": "< 10", "unit": "nM"},
      {"measurement": "IC50", "setting": "[1]", "result": "< 10", "unit": "nM"},
      {"measurement": "c-myc expression", "setting": "MM.1S cells", "result": "down-regulation"},
      {"measurement": "p21 expression", "setting": "MM.1S cells", "result": "up-regulation"},
      {"measurement": "cleavage of caspase 8, caspase 9, caspase 3 and PARP", "setting": "MM.1S cells; 20 nM", "result": "Significant cleavage"},
      {"measurement": "inhibition of TDAC", "setting": "[2]", "result": "dose-dependent inhibition"},
      {"measurement": "activity in combination with bortezomib", "setting": "MM cells", "result": "Synergistic activity"},
      {"measurement": "MM.1S myeloma cell proliferation", "setting": "[3]", "result": "inhibited"}
    ]}
  ]
}
